What was measured:
Rattus norvegicus [1] = test: Toxicity in Wistar rat assessed as RBC count at 100 mg/kg, po bid for 28 days (reference value: 7.38 +/- 0.11 10^6/ul); format: organism-based; parameters: dose 100 mg/kg, route oral; settings: in vivo, 672 h
Rattus norvegicus [2] = test: Toxicity in Wistar rat assessed as aspartate aminotransferase at 100 mg/kg, po bid for 28 days (reference value: 147.16 +/- 11.75 U/L); format: organism-based; parameters: dose 100 mg/kg, route oral; settings: in vivo, 672 h
[3] = molecular target: 72 kDa type IV collagenase (Homo sapiens, UniProt P08253); test: Inhibition of MMP2 (unknown origin) by fluorescence-based FRET assay
Rattus norvegicus [4] = test: Toxicity in Wistar rat assessed as WBC count at 100 mg/kg, po bid for 28 days (reference value: 8.20 +/- 0.33 10^3/ul); format: organism-based; parameters: dose 100 mg/kg, route oral; settings: in vivo, 672 h
Collagenase 3 = Collagenase 3 (Homo sapiens, UniProt P45452); test: Inhibition of MMP13 (unknown origin) by fluorescence-based FRET assay
Rattus norvegicus [5] = test: Toxicity in Wistar rat assessed as body weight at 100 mg/kg, po bid for 28 days; format: organism-based; parameters: dose 100 mg/kg, route oral; settings: in vivo, 672 h
Rattus norvegicus [6] = test: Toxicity in Wistar rat assessed as relative heart weight at 100 mg/kg, po bid for 28 days (reference value: 0.345 +/- 0.007 %); format: organism-based; parameters: dose 100 mg/kg, route oral; settings: in vivo, 672 h
Rattus norvegicus [7] = test: Toxicity in Wistar rat assessed as relative spleen weight at 100 mg/kg, po bid for 28 days (reference value: 0.201+/- 0.007 %); format: organism-based; parameters: dose 100 mg/kg, route oral; settings: in vivo, 672 h
Rattus norvegicus [8] = test: Toxicity in Wistar rat assessed as relative brain weight at 100 mg/kg, po bid for 28 days (reference value: 0.727+/- 0.024 %); format: organism-based; parameters: dose 100 mg/kg, route oral; settings: in vivo, 672 h
Interstitial collagenase = molecular target: T1, Interstitial collagenase (Homo sapiens, UniProt P03956); test: Inhibition of MMP1 (unknown origin) by fluorescence-based FRET assay
T1 sequence (P03956 whole entry): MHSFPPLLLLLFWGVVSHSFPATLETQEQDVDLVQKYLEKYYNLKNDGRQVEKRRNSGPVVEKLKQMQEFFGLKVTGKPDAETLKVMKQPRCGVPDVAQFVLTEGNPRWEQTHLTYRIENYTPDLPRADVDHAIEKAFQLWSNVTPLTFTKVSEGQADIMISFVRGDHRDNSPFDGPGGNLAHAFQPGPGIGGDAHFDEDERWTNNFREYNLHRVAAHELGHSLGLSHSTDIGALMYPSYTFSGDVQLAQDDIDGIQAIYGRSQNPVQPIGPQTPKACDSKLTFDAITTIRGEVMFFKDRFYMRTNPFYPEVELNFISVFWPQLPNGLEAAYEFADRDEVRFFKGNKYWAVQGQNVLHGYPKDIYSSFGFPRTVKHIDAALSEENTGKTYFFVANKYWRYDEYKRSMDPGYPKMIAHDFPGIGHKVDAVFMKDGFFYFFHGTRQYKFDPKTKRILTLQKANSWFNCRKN

[9] = Half life in Wistar rat at 5 mg/kg, po; format: ADME, organism-based; parameters: dose 5 mg/kg, route oral; settings: Wistar, in vivo
[10] = AUC in Wistar rat at 5 mg/kg, iv; format: ADME, organism-based; parameters: dose 5 mg/kg, route intravenous; settings: plasma
Neutrophil collagenase = Neutrophil collagenase (Homo sapiens, UniProt P22894); test: Inhibition of MMP8 (unknown origin) by fluorescence-based FRET assay
Rattus norvegicus [11] = test: Toxicity in Wistar rat assessed as food consumption at 100 mg/kg, po bid for 28 days; format: organism-based; parameters: dose 100 mg/kg, route oral; settings: in vivo, 672 h
[12] = molecular target: Matrix metalloproteinase-9 (Homo sapiens, UniProt P14780); test: Inhibition of MMP9 (unknown origin) by fluorescence-based FRET assay
[13] = Elimination rate constant in Wistar rat at 5 mg/kg, iv; format: ADME, organism-based; parameters: dose 5 mg/kg, route intravenous; settings: in vivo
[14] = Elimination rate constant in Wistar rat at 5 mg/kg, po; format: ADME, organism-based; parameters: dose 5 mg/kg, route oral; settings: Wistar, in vivo
Mus musculus = test: Antiinflammatory activity in po dosed Swiss Albino mouse assessed as inhibition of LPS-induced TNFalpha secretion in blood treated 0.5 hrs before LPS and measured after 1 hr of LPS stimulus by ELISA; format: functional
Matrilysin = molecular target: T2, Matrilysin (Homo sapiens, UniProt P09237); test: Inhibition of MMP7 (unknown origin) by fluorescence-based FRET assay
T2 sequence (P09237 whole entry): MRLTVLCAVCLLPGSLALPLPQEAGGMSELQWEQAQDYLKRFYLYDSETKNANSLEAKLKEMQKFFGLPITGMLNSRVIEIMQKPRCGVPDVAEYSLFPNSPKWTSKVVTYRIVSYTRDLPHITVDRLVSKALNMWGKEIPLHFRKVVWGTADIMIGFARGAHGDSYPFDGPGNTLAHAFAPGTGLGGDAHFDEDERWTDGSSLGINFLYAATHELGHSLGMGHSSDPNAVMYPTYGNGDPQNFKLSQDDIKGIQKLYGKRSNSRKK

Rattus norvegicus [15] = test: Toxicity in Wistar rat assessed as alanine aminotransferase at 100 mg/kg, po bid for 28 days (reference value: 20.78 +/- 1.31 U/L); format: organism-based; parameters: dose 100 mg/kg, route oral; settings: in vivo, 672 h
Rattus norvegicus [16] = test: Toxicity in Wistar rat assessed as relative kidney weight at 100 mg/kg, po bid for 28 days (reference value: 0.821 +/- 0.03 %); format: organism-based; parameters: dose 100 mg/kg, route oral; settings: in vivo, 672 h
Rattus norvegicus [17] = test: Toxicity in Wistar rat assessed as adverse changes at 100 mg/kg, po bid for 28 days; format: organism-based; parameters: dose 100 mg/kg, route oral; settings: in vivo, 672 h
[18] = Oral bioavailability in Wistar rat at 5 mg/kg; format: ADME, organism-based; settings: in vivo
[19] = Half life in Wistar rat at 5 mg/kg, iv; format: ADME, organism-based; parameters: dose 5 mg/kg, route intravenous; settings: in vivo
Blood = test: Antiinflammatory activity in human whole blood assessed as inhibition of LPS-induced TNFalpha secretion by ELISA; format: functional, tissue-based
[20] = molecular target: T3, Disintegrin and metalloproteinase domain-containing protein 17 (Homo sapiens, UniProt P78536); test: Ratio of IC50 for human catalytic domain of TACE to IC50 for ADAM10 (unknown origin)
[21] = Tmax in Wistar rat at 5 mg/kg, po; format: ADME, organism-based; parameters: dose 5 mg/kg, route oral; settings: in vivo
[22] = AUC in Wistar rat at 5 mg/kg, po; format: ADME, organism-based; parameters: dose 5 mg/kg, route oral; settings: plasma
[23] = molecular target: T3, Disintegrin and metalloproteinase domain-containing protein 17; test: Inhibition of human catalytic domain of TACE assessed as inhibit the cleavage of the substrate by fluorescence-based FRET assay
Rattus norvegicus [24] = test: Toxicity in Wistar rat assessed as total bilirubin at 100 mg/kg, po bid for 28 days (reference value: 0.14 +/- 0.01 mg/dL); format: organism-based; parameters: dose 100 mg/kg, route oral; settings: in vivo, 672 h
[25] = molecular target: Matrix metalloproteinase-14 (Homo sapiens, UniProt P50281); test: Inhibition of MMP14 (unknown origin) by fluorescence-based FRET assay
Rattus norvegicus [26] = test: Toxicity in Wistar rat assessed as relative liver weight at 100 mg/kg, po bid for 28 days (reference value: 3.659 +/- 0.1 %); format: organism-based; parameters: dose 100 mg/kg, route oral; settings: in vivo, 672 h
Stromelysin-1 = Stromelysin-1 (Homo sapiens, UniProt P08254); test: Inhibition of MMP3 (unknown origin) by fluorescence-based FRET assay
Rattus norvegicus [27] = test: Toxicity in Wistar rat assessed as survival at 100 mg/kg, po bid for 28 days; format: organism-based; parameters: dose 100 mg/kg, route oral; settings: in vivo, 672 h
Rattus norvegicus [28] = test: Toxicity in Wistar rat assessed as alkaline phosphatase at 100 mg/kg, po bid for 28 days (reference value: 134.66 +/- 5.3 U/L); format: organism-based; parameters: dose 100 mg/kg, route oral; settings: in vivo, 672 h
[29] = molecular target: T4, Disintegrin and metalloproteinase domain-containing protein 10 (Homo sapiens, UniProt O14672); test: Inhibition of ADAM10 (unknown origin) using fluorescent substrate by fluorescence-based FRET assay
T4 sequence (O14672 whole entry): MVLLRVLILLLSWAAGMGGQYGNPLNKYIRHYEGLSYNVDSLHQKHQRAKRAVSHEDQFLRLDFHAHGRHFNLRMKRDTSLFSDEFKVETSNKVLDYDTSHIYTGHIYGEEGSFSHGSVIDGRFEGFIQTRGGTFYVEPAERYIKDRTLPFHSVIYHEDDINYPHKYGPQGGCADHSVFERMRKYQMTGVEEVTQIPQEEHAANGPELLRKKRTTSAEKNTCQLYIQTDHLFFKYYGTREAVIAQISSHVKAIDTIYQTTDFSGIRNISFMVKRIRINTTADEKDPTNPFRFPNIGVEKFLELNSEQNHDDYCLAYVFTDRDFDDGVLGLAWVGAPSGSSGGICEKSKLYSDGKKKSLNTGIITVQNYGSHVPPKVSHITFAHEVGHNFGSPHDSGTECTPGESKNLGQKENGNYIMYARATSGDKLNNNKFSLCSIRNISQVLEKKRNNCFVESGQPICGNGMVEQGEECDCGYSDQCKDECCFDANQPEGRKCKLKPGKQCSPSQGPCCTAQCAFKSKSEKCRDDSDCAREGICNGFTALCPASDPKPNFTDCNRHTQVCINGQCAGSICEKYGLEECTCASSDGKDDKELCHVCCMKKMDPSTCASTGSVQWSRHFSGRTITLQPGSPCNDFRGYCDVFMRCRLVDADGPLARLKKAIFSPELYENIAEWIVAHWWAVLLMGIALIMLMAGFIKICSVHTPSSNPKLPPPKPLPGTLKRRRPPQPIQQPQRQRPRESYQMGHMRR

T3 sequence (P78536 whole entry, the tested form may be a part): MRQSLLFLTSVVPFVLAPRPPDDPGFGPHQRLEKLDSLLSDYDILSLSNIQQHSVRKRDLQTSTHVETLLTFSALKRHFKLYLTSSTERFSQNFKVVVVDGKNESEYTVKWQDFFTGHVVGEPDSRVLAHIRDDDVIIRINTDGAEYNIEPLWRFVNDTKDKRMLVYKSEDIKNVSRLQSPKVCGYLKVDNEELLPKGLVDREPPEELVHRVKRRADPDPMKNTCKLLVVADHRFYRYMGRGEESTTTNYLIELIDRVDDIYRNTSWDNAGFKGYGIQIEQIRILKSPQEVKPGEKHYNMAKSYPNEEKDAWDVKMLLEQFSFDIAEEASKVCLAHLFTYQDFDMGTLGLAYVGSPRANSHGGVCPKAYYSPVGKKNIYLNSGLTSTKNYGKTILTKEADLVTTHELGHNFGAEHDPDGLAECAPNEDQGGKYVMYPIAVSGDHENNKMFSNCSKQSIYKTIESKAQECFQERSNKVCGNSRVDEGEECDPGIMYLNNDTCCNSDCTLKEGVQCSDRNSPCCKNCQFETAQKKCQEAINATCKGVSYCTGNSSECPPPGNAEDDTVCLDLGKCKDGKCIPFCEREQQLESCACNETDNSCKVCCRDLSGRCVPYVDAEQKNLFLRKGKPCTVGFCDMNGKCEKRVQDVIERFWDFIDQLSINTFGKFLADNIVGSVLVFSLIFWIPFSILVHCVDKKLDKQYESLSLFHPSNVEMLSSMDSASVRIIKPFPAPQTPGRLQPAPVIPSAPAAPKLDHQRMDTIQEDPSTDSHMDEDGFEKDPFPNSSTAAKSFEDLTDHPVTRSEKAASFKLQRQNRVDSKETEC
Chain of Matrix metalloproteinase-9 (P14780 whole entry): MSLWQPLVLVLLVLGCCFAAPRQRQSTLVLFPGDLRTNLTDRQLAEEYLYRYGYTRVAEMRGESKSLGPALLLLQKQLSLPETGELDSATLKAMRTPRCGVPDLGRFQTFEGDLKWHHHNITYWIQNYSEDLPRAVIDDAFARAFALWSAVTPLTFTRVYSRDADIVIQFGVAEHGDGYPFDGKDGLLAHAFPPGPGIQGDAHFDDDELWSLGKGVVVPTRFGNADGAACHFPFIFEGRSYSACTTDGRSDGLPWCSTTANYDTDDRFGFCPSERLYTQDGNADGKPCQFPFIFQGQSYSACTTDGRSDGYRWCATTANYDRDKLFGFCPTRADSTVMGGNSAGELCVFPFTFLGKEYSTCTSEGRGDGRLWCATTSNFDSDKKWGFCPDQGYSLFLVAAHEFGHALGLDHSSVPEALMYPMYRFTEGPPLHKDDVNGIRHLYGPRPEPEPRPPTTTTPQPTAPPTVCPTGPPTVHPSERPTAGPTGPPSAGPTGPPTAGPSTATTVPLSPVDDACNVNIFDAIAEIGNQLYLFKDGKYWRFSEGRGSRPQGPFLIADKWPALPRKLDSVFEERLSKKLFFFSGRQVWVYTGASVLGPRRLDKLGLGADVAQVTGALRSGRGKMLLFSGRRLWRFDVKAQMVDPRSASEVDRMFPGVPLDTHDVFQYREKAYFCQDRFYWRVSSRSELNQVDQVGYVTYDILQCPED
Chain of Neutrophil collagenase (P22894 whole entry): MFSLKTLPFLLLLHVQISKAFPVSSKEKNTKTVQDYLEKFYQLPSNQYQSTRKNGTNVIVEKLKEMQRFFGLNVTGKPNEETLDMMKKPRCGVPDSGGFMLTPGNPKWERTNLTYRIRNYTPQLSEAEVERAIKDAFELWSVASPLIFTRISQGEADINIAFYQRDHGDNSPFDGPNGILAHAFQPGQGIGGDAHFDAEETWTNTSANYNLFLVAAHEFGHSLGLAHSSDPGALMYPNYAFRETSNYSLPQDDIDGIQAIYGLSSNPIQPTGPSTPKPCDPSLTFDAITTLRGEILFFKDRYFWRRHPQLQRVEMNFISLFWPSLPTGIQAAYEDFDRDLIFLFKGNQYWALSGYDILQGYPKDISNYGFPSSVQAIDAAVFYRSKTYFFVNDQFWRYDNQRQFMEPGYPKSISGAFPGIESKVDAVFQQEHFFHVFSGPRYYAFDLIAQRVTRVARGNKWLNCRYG
Chain of 72 kDa type IV collagenase (P08253 whole entry): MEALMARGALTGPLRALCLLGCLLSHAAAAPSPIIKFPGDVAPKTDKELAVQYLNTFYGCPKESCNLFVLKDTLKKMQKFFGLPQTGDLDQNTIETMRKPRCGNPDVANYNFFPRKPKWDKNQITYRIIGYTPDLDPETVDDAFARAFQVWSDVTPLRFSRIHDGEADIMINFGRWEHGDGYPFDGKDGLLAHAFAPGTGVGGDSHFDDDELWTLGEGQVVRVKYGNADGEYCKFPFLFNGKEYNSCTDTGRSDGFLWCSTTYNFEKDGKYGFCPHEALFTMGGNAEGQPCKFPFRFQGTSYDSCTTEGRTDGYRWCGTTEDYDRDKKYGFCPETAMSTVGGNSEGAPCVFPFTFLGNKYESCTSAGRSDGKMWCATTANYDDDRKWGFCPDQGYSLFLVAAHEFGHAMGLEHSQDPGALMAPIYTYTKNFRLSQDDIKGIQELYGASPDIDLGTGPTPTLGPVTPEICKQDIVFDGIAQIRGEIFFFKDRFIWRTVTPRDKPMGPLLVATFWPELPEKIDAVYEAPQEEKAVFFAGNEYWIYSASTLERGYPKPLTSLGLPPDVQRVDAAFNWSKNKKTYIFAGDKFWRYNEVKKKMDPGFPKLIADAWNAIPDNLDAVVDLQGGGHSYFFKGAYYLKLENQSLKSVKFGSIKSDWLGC
Chain of Stromelysin-1 (P08254 whole entry): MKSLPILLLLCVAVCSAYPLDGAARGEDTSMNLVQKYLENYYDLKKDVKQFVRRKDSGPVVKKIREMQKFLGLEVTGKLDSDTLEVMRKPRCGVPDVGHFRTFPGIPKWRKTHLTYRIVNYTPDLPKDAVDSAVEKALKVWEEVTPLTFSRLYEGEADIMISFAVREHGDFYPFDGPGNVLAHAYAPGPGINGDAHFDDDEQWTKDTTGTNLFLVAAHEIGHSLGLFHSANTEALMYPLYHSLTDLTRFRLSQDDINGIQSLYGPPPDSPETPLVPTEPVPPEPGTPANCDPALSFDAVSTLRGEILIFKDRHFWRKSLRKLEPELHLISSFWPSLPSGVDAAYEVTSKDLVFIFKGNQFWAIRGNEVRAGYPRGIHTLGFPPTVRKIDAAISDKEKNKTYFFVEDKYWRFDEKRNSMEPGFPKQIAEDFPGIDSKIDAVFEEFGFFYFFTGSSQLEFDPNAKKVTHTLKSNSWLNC

## Cc1cc(COc2ccc([C@]3(N)CCN([C@H](CC(C)C)C(=O)NO)C3=O)cc2)c2ccccc2n1
Rattus norvegicus [1]
  Activity: 7.69 ×10⁶ /uL
Rattus norvegicus [2]
  Activity: 457.21 U/L
[3]
  IC50: 0.482 µM
Rattus norvegicus [4]
  Activity: 8.99 ×10³ /uL
Collagenase 3
  IC50: 0.461 µM
Rattus norvegicus [5]
  Activity: Non-toxic
Rattus norvegicus [6]
  Activity: 0.351%
Rattus norvegicus [7]
  Activity: 0.211%
Rattus norvegicus [8]
  Activity: 0.714%
Interstitial collagenase
  IC50: 0.429 µM
[9]
  half-life: 8.67 h
[10]
  AUC: 32400 ng·h/mL
Neutrophil collagenase
  IC50: 0.299 µM
Rattus norvegicus [11]
  Activity: Non-toxic
[12]
  IC50: 0.389 µM
[13]
  k el: 8.33e-05 s⁻¹
[14]
  k el: 2.22e-05 s⁻¹
Mus musculus
  ED50: 6.9 mg/kg
Matrilysin
  IC50: 0.466 µM
Rattus norvegicus [15]
  Activity: 39.22 U/L
Rattus norvegicus [16]
  Activity: 0.831%
Rattus norvegicus [17]
  Activity: Non-toxic
[18]
  bioavailability: 18.4%
[19]
  half-life: 2.69 h
Blood
  IC50: 0.06 µM
[20]
  Ratio IC50: 40
[21]
  Tmax: 1.21 h
[22]
  AUC: 5970 ng·h/mL
[23]
  IC50: 0.012 µM
Rattus norvegicus [24]
  Activity: 0.79 mg/dL
[25]
  IC50: 0.499 µM
Rattus norvegicus [26]
  Activity: 4.993%
Stromelysin-1
  IC50: 0.285 µM
Rattus norvegicus [27]
  Activity: Non-toxic
Rattus norvegicus [28]
  Activity: 523.43 U/L
[29]
  IC50: 0.48 µM
